Source: patent US20070141091A1, “BIGUANIDE OINTMENT AND METHOD OF TREATMENT AND PREVENTION OF INFECTIONS” (priority 2005, published 2007)

Columns and labels:
Acanthamoeba keratitis [1] = settings: bilateral case, one treatment per eye; cited from earlier work
[2] = system: experimental Aspergillus keratitis; settings: 0.02%; cited from earlier work
Acanthamoeba keratitis [3] = settings: in combination with propamidine isothionate (Brolene), hexamidine (Desomodine), or neomycin; cited from earlier work
Cytomegalovirus = experiment: Viral Suspension Assay, Cytomegalovirus; format: cell-based
Description: (§1) The Viral Suspension Assay was used to evaluate the antiviral properties of Alexidine against Adenovirus Type-4, Adenovirus Type-8 and Adenovirus Type-19 and Cytomegalovirus when exposed in suspension for 1, 2, 5, and 10 minutes. The presence of virus (infectivity) was determined by monitoring the virus specific cytopathic effect (CPE) on an appropriate indicator cell line, rabbit kidney. Results are reported as Percent (%) Reduction in virus titer as compared to the corresponding virus control titer (Table 1). The titer of the virus controls were 7.5 log10 following the one minute exposure time; 7.0 log10 following the two minute exposure time; and 7.75 log10 following both the five and ten minute exposure times.

Adenovirus Type-4 = experiment: Viral Suspension Assay, Adenovirus Type-4; format: cell-based
Description: as §1

Adenovirus Type-19 = experiment: Viral Suspension Assay, Adenovirus Type-19; format: cell-based; settings: for Percent Reduction (%) Adenovirus type 19: 1, 2, 5 and 10 minutes exposure
Description: as §1

[4] = system: Herpes simplex virus type 1; experiment: HSV-1 Viral Suspension Assay; format: cell-based
Description: as §1, with “Herpes simplex virus type 1” for “Adenovirus Type-4, Adenovirus Type-8 and Adenovirus Type-19 and Cytomegalovirus”

Adenovirus Type-8 = experiment: Viral Suspension Assay, Adenovirus Type-8; format: cell-based
Description: as §1

[5] = Alexidine 30 ppm, 1 minute exposure
[6] = Alexidine 30 ppm, 2 minutes exposure
[7] = Alexidine 30 ppm, 10 minutes exposure
[8] = Alexidine 99 ppm, 1 minute exposure
[9] = Alexidine 99 ppm, 2 minutes exposure
[10] = Alexidine 99 ppm, 5 minutes exposure
[11] = Alexidine 99 ppm, 10 minutes exposure
[12] = Alexidine 30 ppm, 5 minutes exposure

For “poly(hexamethylene biguanide) [polyhexamethylene biguanide]”, the “treatment of recurrences of Acanthamoeba keratitis” value (Acanthamoeba keratitis [1]) is listed as “successfully treated”, the “efficacy in experimental Aspergillus keratitis” value [2] is listed as “moderately effective” and the “response of Acanthamoeba keratitis to treatment” value (Acanthamoeba keratitis [3]) is listed as “respond well”.
In the case of `CCCCC(CC)CNC(=N)NC(=N)NCCCCCCNC(=N)NC(=N)NCC(CC)CCCC` (centres unmarked) [Alexidine, 1,1′-Hexamethylene-bis [5-(2-ethylhexyl)biguanide]], the “Percent Reduction (%) Cytomegalovirus” value (Cytomegalovirus; [5]) is reported as 43.8%, the “Percent Reduction (%) Cytomegalovirus” value (Cytomegalovirus; [6]) is reported as 68.4% and the “Percent Reduction (%) Cytomegalovirus” value (Cytomegalovirus; [7]) is reported as 43.8%. The “Percent Reduction (%) Cytomegalovirus” value (Cytomegalovirus; [8]) was 98.2%, the “Percent Reduction (%) Cytomegalovirus” value (Cytomegalovirus; [9]) was 99.0% and the “Percent Reduction (%) Cytomegalovirus” value (Cytomegalovirus; [10]) was 99.8%. For the same compound, the “Percent Reduction (%) Cytomegalovirus” value (Cytomegalovirus; [11]) was 99.98%, the “effectiveness against Cytomegalovirus, in words” value (Cytomegalovirus; at both 30 ppm and 99 ppm) was “somewhat effective” and the “Percent Reduction (%) Adenovirus type 4” value (Adenovirus Type-4; [5]) was 43.8%. For the same compound, the “Percent Reduction (%) Adenovirus type 4” value (Adenovirus Type-4; [12]) was 82.2%, the “Percent Reduction (%) Adenovirus type 4” value (Adenovirus Type-4; [7]) was 68.4% and the “Percent Reduction (%) Adenovirus type 4” value (Adenovirus Type-4; [8]) was 68.4%. For the same compound, the “Percent Reduction (%) Adenovirus type 4” value (Adenovirus Type-4; [10]) was 43.8%, the “Percent Reduction (%) Adenovirus type 4” value (Adenovirus Type-4; [11]) was 68.4% and the “effectiveness against Adenovirus Type-4, in words” value (Adenovirus Type-4; at both 30 ppm and 99 ppm) was “somewhat effective”. The “effectiveness against the tested strain of Adenovirus Type-19, in words” value (Adenovirus Type-19) was “did not appear to be effective”, the “Percent Reduction (%) Adenovirus type 19” value (Adenovirus Type-19; Alexidine 30 ppm) was “No reduction” and the “Percent Reduction (%) Adenovirus type 19” value (Adenovirus Type-19; Alexidine 99 ppm) was “No reduction”. The “antimicrobial potency against Herpes Simplex-1, summary in words” value [4] was “potent antimicrobial agent”, the “Percent Reduction of Herpes simplex virus type 1” value ([4]; Alexidine 30 ppm, 1 minute exposure in suspension, vs virus control titer) was 99.99% and the “Percent Reduction of Herpes simplex virus type 1” value [4, 6] was 99.99%. The “Percent Reduction of Herpes simplex virus type 1” value [4, 12] was 99.9994%, the “Percent Reduction of Herpes simplex virus type 1” value [4, 7] was “≧100%” and the “Percent Reduction of Herpes simplex virus type 1” value [4, 8] was 99.999%. For the same compound, the “Percent Reduction of Herpes simplex virus type 1” value [4, 9] was 99.994%, the “Percent Reduction of Herpes simplex virus type 1” value [4, 10] was 99.9999% and the “Percent Reduction of Herpes simplex virus type 1” value [4, 11] was “≧100%”. For the same compound, the “effectiveness against herpes simplex type-1 virus (HSV-1), in words” value ([4]; at both 30 ppm and 99 ppm) was “effective agents”, the “Percent Reduction (%) Adenovirus type 8” value (Adenovirus Type-8; [5]) was 96.8% and the “Percent Reduction (%) Adenovirus type 8” value (Adenovirus Type-8; [6]) was 94.4%. For the same compound, the “Percent Reduction (%) Adenovirus type 8” value (Adenovirus Type-8; [12]) was 82.2%, the “Percent Reduction (%) Adenovirus type 8” value (Adenovirus Type-8; [7]) was 90.0% and the “Percent Reduction (%) Adenovirus type 8” value (Adenovirus Type-8; [8]) was 82.2%. The “Percent Reduction (%) Adenovirus type 8” value (Adenovirus Type-8; [9]) was 82.2%, the “Percent Reduction (%) Adenovirus type 8” value (Adenovirus Type-8; [10]) was 90.0% and the “Percent Reduction (%) Adenovirus type 8” value (Adenovirus Type-8; [11]) was 90.0%. For the same compound, the “effectiveness against Adenovirus Type-8, in words” value (Adenovirus Type-8; at both 30 ppm and 99 ppm) was “somewhat effective”.
In the case of `N=C(NCCCCCCNC(=N)NC(=N)Nc1ccc(Cl)cc1)NC(=N)Nc1ccc(Cl)cc1` [chlorhexidine gluconate, 1,1′-hexamethylene-bis[5-(p-chlorophenyl)biguanide]], the “response of Acanthamoeba keratitis to treatment” value (Acanthamoeba keratitis [3]) is listed as “respond well”.
